The values below come from patent US20060111341A1, “Use of galanthamine and the derivatives thereof in the production of medicaments” (priority 2003, published 2006).

pIC50: −log10 of the molar value. Read-outs that look alike come from different tables or passages of the source. A value given as a limit tells only on which side of the number the result lay.

The test system of series [1] is medicament-induced delirium. To be noted: one patient, WO 00/32185 A; cited from earlier work.
Series [2] deals with T1, Acetylcholinesterase (Homo sapiens, UniProt P22303).
Series [3] concerns the target T1, Acetylcholinesterase. Description: biochemical.
The next series has as its target Butyrylcholinesterase (Homo sapiens, UniProt P06276). Kind of series: biochemical.
The subject of a further series is post-operative delirium. Kind of series: Prospective clinical study for the prevention of post-operative delirium (Confusion Assessment Method). In kind it is in vivo, patients. From the text:
In order to be able to test the effect of the pharmaceutical forms of the invention on patients, a prospective study was accomplished for the prevention of post-operative delirium at five Austrian orthopedic hospitals (two in Vienna, and one each in Linz, Graz and Krems) and all together 229 patients, who underwent hip replacement and/or combined planned surgical intervention for implantation were part of the study.
Hip/Knee endoprosthesis. The patients of the group were given in the evening following the surgical intervention (day 0) 8 mg galanthamine HCl, then on the days 1 to 4 in each case 4 mg in the morning and at noon and 8 mg in the evening, i.e., 16 mg t.i.d. to the fifth day. […], the dose was reduced to 8 mg b.i.d., starting from that day until the 6th day when no more treatment took place.
For the determination of the effectiveness with the help of the “Confusion Assessment Method” (Lit.14) 155 patients could be consulted. In the group of placebos 7 patients (8, 5%) developed an post-operative delirium, in the galanthamine group only one patient (1, 4%) developed post-operative delirium, which corresponds to a statistically significant difference (p=0, 044).

As usually defined, the pIC50 is the IC50 on a negative log10 scale, so that one unit is a factor of ten. Read a low pIC50 as a large IC50.

Butyrylcholinesterase, sequence (P06276 29-602): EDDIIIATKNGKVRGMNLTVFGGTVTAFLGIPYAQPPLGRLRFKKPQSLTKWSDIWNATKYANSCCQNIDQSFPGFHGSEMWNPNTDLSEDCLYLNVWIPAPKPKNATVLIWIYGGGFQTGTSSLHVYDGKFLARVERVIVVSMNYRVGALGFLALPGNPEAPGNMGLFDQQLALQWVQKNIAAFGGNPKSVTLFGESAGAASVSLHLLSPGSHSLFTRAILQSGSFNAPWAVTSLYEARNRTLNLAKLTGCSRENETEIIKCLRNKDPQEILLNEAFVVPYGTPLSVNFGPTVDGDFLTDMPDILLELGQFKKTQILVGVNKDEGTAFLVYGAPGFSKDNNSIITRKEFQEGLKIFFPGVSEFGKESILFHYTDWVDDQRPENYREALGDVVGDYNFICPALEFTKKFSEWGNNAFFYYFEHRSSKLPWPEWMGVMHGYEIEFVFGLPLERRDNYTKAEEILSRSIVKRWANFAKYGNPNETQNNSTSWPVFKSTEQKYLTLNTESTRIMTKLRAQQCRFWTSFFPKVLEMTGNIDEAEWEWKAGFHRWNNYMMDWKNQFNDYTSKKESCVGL
T1 sequence (P22303 32-614): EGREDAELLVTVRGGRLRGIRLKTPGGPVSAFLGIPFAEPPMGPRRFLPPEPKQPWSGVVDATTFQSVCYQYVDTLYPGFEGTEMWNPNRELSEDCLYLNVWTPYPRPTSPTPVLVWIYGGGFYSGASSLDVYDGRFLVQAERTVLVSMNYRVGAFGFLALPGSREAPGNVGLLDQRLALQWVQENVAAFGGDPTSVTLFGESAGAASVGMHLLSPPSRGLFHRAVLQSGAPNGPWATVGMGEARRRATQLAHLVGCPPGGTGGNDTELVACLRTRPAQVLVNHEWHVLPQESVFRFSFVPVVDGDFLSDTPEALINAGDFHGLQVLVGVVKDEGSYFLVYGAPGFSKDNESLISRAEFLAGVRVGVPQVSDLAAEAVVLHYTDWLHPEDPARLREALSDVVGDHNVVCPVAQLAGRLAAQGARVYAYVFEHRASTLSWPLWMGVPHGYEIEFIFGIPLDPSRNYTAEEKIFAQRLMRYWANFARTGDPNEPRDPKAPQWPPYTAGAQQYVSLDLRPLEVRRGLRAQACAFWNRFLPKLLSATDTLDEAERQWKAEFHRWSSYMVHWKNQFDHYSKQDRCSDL

As to `CCN(C)C(=O)Oc1cccc([C@H](C)N(C)C)c1` [rivastigmine], in series [1], the “treatment of delirium after lithium intoxication” value is “successfully treated”.
The molecule `COc1cc2c(cc1OC)C(=O)C(CCCCN1CC[C@@]34C=C[C@H](O)C[C@@H]3Oc3c(OC)ccc(c34)C1)C2` (stereo partly drawn) [Nr 167] showed a pIC50 on Acetylcholinesterase [2] of 7.70.
Take `COc1ccc2c3c1O[C@H]1C[C@@H](O)C=C[C@@]31CCN(CN(NC(=O)OC(C)(C)C)C(=O)OC(C)(C)C)C2` [Nr 160]: the pIC50 against Acetylcholinesterase [3] was 5.44; against Butyrylcholinesterase it was 4.70.
On to `COc1ccc2c3c1O[C@H]1C[C@@H](O)C=C[C@@]31CCN(C)C2` [galanthamine], for which, in the series with post-operative delirium (hip/knee endoprosthesis patients, oral galanthamine day 0 to 5, Confusion Assessment Method, 155 patients evaluated, placebo 7 patients), the “patients who developed post-operative delirium (number)” value was “one”. Moreover, in the series with post-operative delirium (oral administration, patients with limited cognitive ability with acute POD), the “improvement of the symptoms of acute POD” value was “unexpected and large improvement of the symptoms”. In addition, the “observed side effects of galanthamine administration” value in the series with post-operative delirium (oral administration, post-operative patients) is “very small”. Moreover, in the series on post-operative delirium (po, 0 h), the “patients who developed post-operative delirium (percent)” value was 1, 4%.
`COc1ccc2c3c1O[C@H]1C[C@@H](O)C=C[C@@]31CCN(c1cccs1)C2` [Nr 124]: the pIC50 is 5.40 against Acetylcholinesterase [3] and 6.27 against Butyrylcholinesterase.
The like results for `CCOC(=O)/C=C/N1CCC23C=C[C@H](O)CC2Oc2c(OC)ccc(c23)C1` (mixture of isomers) [Nr 110] were, in that order, 4.30 and less than 4.00.
The like results for `COc1ccc2c3c1OC1C[C@@H](O)C=CC31CCN(C(=O)NC(C)C)C2` (mixture of isomers) [Nr 75] were, in that order, 5.38 and less than 4.00.
The like results for `CCOC(=O)NN(CN1CC[C@@]23C=C[C@H](O)C[C@@H]2Oc2c(OC)ccc(c23)C1)C(=O)OCC` [Nr 159] were, in that order, 5.52 and less than 4.00.
As to `COc1ccc2c3c1O[C@H]1C[C@@H](O)C=C[C@@]31CCN(C(=O)OC(C)(C)C)C2` [Nr 139], the pIC50 was 4.64 against Acetylcholinesterase [3] and less than 4.00 against Butyrylcholinesterase.
The like results for `COc1ccc2c3c1OC1C[C@@H](O)C=CC31CCN(C=C(C#N)C#N)C2` (mixture of isomers) [Nr 80] were, in that order, 4.55 and less than 4.00.
The like results for `COc1ccc2c3c1OC1C[C@@H](O)C=CC31CCN(CCCO)C2` (mixture of isomers) [Nr 81] were, in that order, 5.14 and 4.68.
The like results for `COc1ccc2c3c1OC1C[C@@H](O)C=CC31CCN(/C(=N/C#N)SC)C2` (mixture of isomers) [Nr 79] were, in that order, 4.60 and 6.27.
`COc1ccc2c3c1O[C@H]1C[C@@H](O)C=C[C@@]31CCN(C(=O)Oc1ccccc1)C2` [Nr 137]: the values for the pIC50 against Acetylcholinesterase [3] and on Butyrylcholinesterase were 4.34 and less than 4.00, respectively.
The like results for `COc1ccc2c3c1O[C@H]1C[C@@H](O)C=C[C@@]31CCN(/C(=N/C#N)SC)C2` [Nr 117] were, in that order, 5.17 and 4.52.
The like results for `COc1cc(Br)c2c3c1OC1C[C@@H](O)C=CC31CCN(C(=O)NC(C)C)C2` (mixture of isomers) [Nr 70] were, in that order, less than 4.00 and 4.60.
Take `COc1ccc2c3c1OC1C/C(=N/N(C)C)C=CC31CCN(C)C2` (racemic) [Nr 24]: the pIC50 is 4.10 at Acetylcholinesterase [3] and 4.22 against Butyrylcholinesterase.
The like results for `COc1ccc2c3c1OC1C[C@@H](O)C=CC31CCN(CCCN1CC3CC1CN3c1ccccc1)C2` (mixture of isomers) [Nr 60] were, in that order, 4.62 and 5.12.
On to `COc1ccc2c3c1O[C@@H]1C[C@H](O)C=C[C@]31CCN(CCCN1CCCCC1)C2` [Nr 153], for which the pIC50 against Acetylcholinesterase [3] was 5.05; against Butyrylcholinesterase it was 4.64.
As to `COc1ccc2c3c1O[C@H]1C[C@H](N)C=C[C@@]31CCN(C)C2` [Nr 84], the pIC50 against Acetylcholinesterase [3] is 4.40; against Butyrylcholinesterase, 5.22.
The like results for `COc1cc(C)c2c3c1OC1C[C@@H](O)C=CC31CCN(C)C2C#N` (mixture of isomers) [Nr 145] were, in that order, 4.10 and less than 4.00.
The like results for `COc1ccc2c3c1OC1C[C@@H](O)C=CC31CCN(Cc1ccccc1)C2` (mixture of isomers) [Nr 41] were, in that order, 6.15 and 6.19.
The like results for `COc1ccc2c3c1O[C@H]1C[C@@H](OC(=S)Nc4ccccc4)C=C[C@@]31CCN(C)C2` [Nr 179] were, in that order, 4.29 and 4.52.
With `COc1ccc2c3c1O[C@@H]1C[C@H](O)C=C[C@]31CC[N+](C)(CCN1CCOCC1)C2` (stereo partly drawn) [Nr 12], the figures for the pIC50 against Acetylcholinesterase [3] and at Butyrylcholinesterase were 4.24 and 4.89, respectively.
The like results for `COc1ccc2c3c1O[C@H]1C[C@@H](O)C=C[C@@]31CCN(CCCN1CC3CC1CN3c1ccc(F)cc1)C2` (stereo partly drawn) [Nr 142] were, in that order, 5.52 and 5.62.
The like results for `COc1cc(Br)c2c3c1OC1C[C@@H](O)C=CC31CCN(CCC#N)C2` (mixture of isomers) [Nr 72] were, in that order, less than 4.00 and 4.37.
In the case of `COc1cc(C)c2c3c1OC1C[C@@H](O)C=CC31CCN(CCN1CCOCC1)C2` (mixture of isomers) [Nr 65], the pIC50 is less than 4.00 against Acetylcholinesterase [3] and 5.28 at Butyrylcholinesterase.
The like results for `COc1ccc2c3c1O[C@H]1C[C@@H](O)C=C[C@@]31CCN(C(=O)Nc1ccccc1C(F)(F)F)C2` [Nr 111] were, in that order, 4.52 and less than 4.00.
The like results for `CCCCNC(=O)O[C@H]1C=C[C@@]23CCN(C)Cc4ccc(OC)c(c42)O[C@H]3C1` [Nr 1] were, in that order, less than 4.00 and 5.32.
For the molecule `COc1ccc2c3c1OC1C[C@@H](O)C=CC31CCN(CCCN)C2` (mixture of isomers) [Nr 90], the pIC50 was 5.47 against Acetylcholinesterase [3] and 4.96 against Butyrylcholinesterase.
Take `COc1cc(C)c2c3c1OC1C[C@@H](O)C=CC31CCN(CCCN1CCCCC1)C2` (mixture of isomers) [Nr 64]: the pIC50 against Acetylcholinesterase [3] is 4.34; against Butyrylcholinesterase, 6.22.
In the case of `COc1ccc2c3c1OC1C[C@@H](O)C=CC31CCN(CCO)C2` (mixture of isomers) [Nr 34], the pIC50 at Acetylcholinesterase [3] is 4.85; on Butyrylcholinesterase, 4.59.
For the molecule `COc1ccc2c3c1O[C@H]1C[C@@H](O)C=C[C@@]31CCN(CCN)C2` [Nr 141], the pIC50 is 5.89 against Acetylcholinesterase [3] and 5.68 against Butyrylcholinesterase.
The like results for `COc1ccc2c3c1O[C@H]1C[C@@H](O)C=C[C@@]31CCN(c1ccccc1)C2` [Nr 123] were, in that order, 6.30 and 6.62.
The like results for `COc1ccc2c3c1OC1C/C(=N/NC(N)=O)C=CC31CCN(C)C2` (racemic) [Nr 32] were, in that order, less than 4.00 and 4.70.
The like results for `COc1ccc2c3c1O[C@H]1C[C@@H](O)C=C[C@@]31CCN(C1CCN(C(=O)c3ccccc3)CC1)C2` [Nr 148] were, in that order, 4.62 and 5.52.
Regarding `C=CCN1CCC23C=C[C@H](O)CC2Oc2c(OC)cc(C)c(c23)C1` (mixture of isomers) [Nr 62], the results for the pIC50 against Acetylcholinesterase [3] and against Butyrylcholinesterase were less than 4.00 and 5.64, respectively.
